Tested on: PC3 cells
Test: NAMPT Cell Proliferation Assay
Format: cell-based
Settings: Homo sapiens, PC-3, 120 h, 5 days incubation, cell viability by Cell Titer Glo
Summary of the method: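 Cell Titer Glo viability after 5-day exposure (37° C, 5% CO2); PC3, 500 cells/well, RPMI + 10% heat-inactivated FBS, overnight attachment before dosing. Dose range 10 μM to 1×10^−5 μM, 10-fold steps. IC50 = sigmoidal fit of % inhibition.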

Structure (SMILES) | IC50 [nM]
CC(C)Cc1cc(-c2ccc(C(=O)NCc3ccn4ccnc4c3)s2)n(C)n1 [Example 906, N-(imidazo[1,2-a]pyridin-7-ylmethyl)-5-[1-methyl-3-(2-methylpropyl)-1H-pyrazol-5-yl]thiophene-2-carboxamide] | 4.17
CC(C)Cc1cc(-c2ccc(C(=O)NCc3ccn4ccnc4c3)s2)n(Cc2ccccc2)n1 [Example 907, 5-[1-benzyl-3-(2-methylpropyl)-1H-pyrazol-5-yl]-N-(imidazo[1,2-a]pyridin-7-ylmethyl)thiophene-2-carboxamide] | 7.09
O=C(CC1CCCC1)Nc1ccc(C(=O)NCc2cn3ccnc3cn2)c(F)c1 [Example 908, 4-[(cyclopentylacetyl)amino]-2-fluoro-N-(imidazo[1,2-a]pyrazin-6-ylmethyl)benzamide] | 11.2
O=C(NCc1ccn2ccnc2c1)c1ccc(C(=O)NCc2cc(F)ccc2F)cc1 [Example 909, N-(2,5-difluorobenzyl)-N′-(imidazo[1,2-a]pyridin-7-ylmethyl)benzene-1,4-dicarboxamide] | 7210
CC(C)C1CCCN1C(=O)c1ccc(C(=O)NCc2ccn3ccnc3c2)cc1 (stereo not drawn) [Example 910, N-(imidazo[1,2-a]pyridin-7-ylmethyl)-4-{[2-(propan-2-yl)pyrrolidin-1-yl]carbonyl}benzamide] | > 10000
CC(C)(C)Cc1nnc(-c2ccc(NC(=O)Cc3ccn4ccnc4c3)cc2)o1 [Example 911, N-{4-[5-(2,2-dimethylpropyl)-1,3,4-oxadiazol-2-yl]phenyl}-2-(imidazo[1,2-a]pyridin-7-yl)acetamide] | 42.5
CC(C)(C)OC(=O)N1CCC(c2ccc(NC(=O)NCc3ccn4ccnc4c3)c(F)c2)CC1 [Example 912, tert-butyl 4-(3-fluoro-4-{[(imidazo[1,2-a]pyridin-7-ylmethyl)carbamoyl]amino}phenyl)piperidine-1-carboxylate] | 8.72
O=C(NCc1ccn2ccnc2c1)c1ccc(C2CCN(C(=O)c3cccnc3Cl)CC2)cc1 [Example 913, 4-{1-[(2-chloropyridin-3-yl)carbonyl]piperidin-4-yl}-N-(imidazo[1,2-a]pyridin-7-ylmethyl)benzamide] | 14.4
CC(C)=CC(=O)N1CCC(c2ccc(C(=O)NCc3ccn4ccnc4c3)cc2)CC1 [Example 914, N-(imidazo[1,2-a]pyridin-7-ylmethyl)-4-[1-(3-methylbut-2-enoyl)piperidin-4-yl]benzamide] | 77.2
COc1ccc(C(=O)N2CCC(c3ccc(C(=O)NCc4ccn5ccnc5c4)cc3)CC2)cc1F [Example 915, 4-[1-(3-fluoro-4-methoxybenzoyl)piperidin-4-yl]-N-(imidazo[1,2-a]pyridin-7-ylmethyl)benzamide] | 174
CC1=C(C(=O)N2CCC(c3ccc(C(=O)NCc4ccn5ccnc5c4)cc3)CC2)CCC1 [Example 916, N-(imidazo[1,2-a]pyridin-7-ylmethyl)-4-{1-[(2-methylcyclopent-1-en-1-yl)carbonyl]piperidin-4-yl}benzamide] | 6.73
CCC(CC)C(=O)N1CCC(c2ccc(C(=O)NCc3ccn4ccnc4c3)cc2)CC1 [Example 917, 4-[1-(2-ethylbutanoyl)piperidin-4-yl]-N-(imidazo[1,2-a]pyridin-7-ylmethyl)benzamide] | 6.79
O=C(NCc1ccn2ccnc2c1)c1ccc(C2CCN(C(=O)COc3ccc(F)cc3)CC2)cc1 [Example 918, 4-{1-[(4-fluorophenoxy)acetyl]piperidin-4-yl}-N-(imidazo[1,2-a]pyridin-7-ylmethyl)benzamide] | 233
COc1cc(OC)cc(C(=O)N2CCC(c3ccc(C(=O)NCc4ccn5ccnc5c4)cc3)CC2)c1 [Example 919, 4-[1-(3,5-dimethoxybenzoyl)piperidin-4-yl]-N-(imidazo[1,2-a]pyridin-7-ylmethyl)benzamide] | 101
O=C(NCc1ccn2ccnc2c1)c1ccc(C2CCN(C(=O)C3CC=CCC3)CC2)cc1 (stereo not drawn) [Example 920, 4-[1-(cyclohex-3-en-1-ylcarbonyl)piperidin-4-yl]-N-(imidazo[1,2-a]pyridin-7-ylmethyl)benzamide] | 7.94
COc1ccccc1CC(=O)N1CCC(c2ccc(C(=O)NCc3ccn4ccnc4c3)cc2)CC1 [Example 921, N-(imidazo[1,2-a]pyridin-7-ylmethyl)-4-{1-[(2-methoxyphenyl)acetyl]piperidin-4-yl}benzamide] | 157
O=C(NCc1ccn2ccnc2c1)c1ccc(C2CCN(C(=O)C(CO)c3ccccc3)CC2)cc1 (stereo not drawn) [Example 922, 4-[1-(3-hydroxy-2-phenylpropanoyl)piperidin-4-yl]-N-(imidazo[1,2-a]pyridin-7-ylmethyl)benzamide] | 9.95
Cc1cccc(C(=O)N2CCC(c3ccc(C(=O)NCc4ccn5ccnc5c4)cc3)CC2)c1 [Example 923, N-(imidazo[1,2-a]pyridin-7-ylmethyl)-4-[1-(3-methylbenzoyl)piperidin-4-yl]benzamide] | 4.58

Structure (SMILES) | IC50 [nM]
CC(=O)c1ccccc1C(=O)N1CCC(c2ccc(C(=O)NCc3ccn4ccnc4c3)cc2)CC1 [Example 924, 4-[1-(2-acetylbenzoyl)piperidin-4-yl]-N-(imidazo[1,2-a]pyridin-7-ylmethyl)benzamide] | 18
COCc1ccccc1C(=O)N1CCC(c2ccc(C(=O)NCc3ccn4ccnc4c3)cc2)CC1 [Example 925, N-(imidazo[1,2-a]pyridin-7-ylmethyl)-4-{1-[2-(methoxymethyl)benzoyl]piperidin-4-yl}benzamide] | 2.06
CC(C(=O)N1CCC(c2ccc(C(=O)NCc3ccn4ccnc4c3)cc2)CC1)c1ccccc1 (stereo not drawn) [Example 926, N-(imidazo[1,2-a]pyridin-7-ylmethyl)-4-[1-(2-phenylpropanoyl)piperidin-4-yl]benzamide] | 9.69
COc1cccc(OC)c1C(=O)N1CCC(c2ccc(C(=O)NCc3ccn4ccnc4c3)cc2)CC1 [Example 927, 4-[1-(2,6-dimethoxybenzoyl)piperidin-4-yl]-N-(imidazo[1,2-a]pyridin-7-ylmethyl)benzamide] | 7.13
CCN(CC)CCC(=O)N1CCC(c2ccc(C(=O)NCc3ccn4ccnc4c3)cc2)CC1 [Example 928, 4-[1-(N,N-diethyl-beta-alanyl)piperidin-4-yl]-N-(imidazo[1,2-a]pyridin-7-ylmethyl)benzamide] | 106
CC(C)CS(=O)(=O)CC(=O)N1CCC(c2ccc(C(=O)NCc3ccn4ccnc4c3)cc2)CC1 [Example 929, N-(imidazo[1,2-a]pyridin-7-ylmethyl)-4-(1-{[(2-methylpropyl)sulfonyl]acetyl}piperidin-4-yl)benzamide] | 24.7
CC(Oc1ccccc1)C(=O)N1CCC(c2ccc(C(=O)NCc3ccn4ccnc4c3)cc2)CC1 (stereo not drawn) [Example 930, N-(imidazo[1,2-a]pyridin-7-ylmethyl)-4-[1-(2-phenoxypropanoyl)piperidin-4-yl]benzamide] | 2.09
C[C@H]1CCCC[C@H]1OCC(=O)N1CCC(c2ccc(C(=O)NCc3ccn4ccnc4c3)cc2)CC1 [Example 931, N-(imidazo[1,2-a]pyridin-7-ylmethyl)-4-[1-({[(1R,2S)-2-methylcyclohexyl]oxy}acetyl)piperidin-4-yl]benzamide] | 6.77
Cc1cc(C(=O)N2CCC(c3ccc(C(=O)NCc4ccn5ccnc5c4)cc3)CC2)cc(Cl)n1 [Example 932, 4-{1-[(2-chloro-6-methylpyridin-4-yl)carbonyl]piperidin-4-yl}-N-(imidazo[1,2-a]pyridin-7-ylmethyl)benzamide] | 30.3
COc1cccc(CC(=O)N2CCC(c3ccc(C(=O)NCc4ccn5ccnc5c4)cc3)CC2)c1 [Example 933, N-(imidazo[1,2-a]pyridin-7-ylmethyl)-4-{1-[(3-methoxyphenyl)acetyl]piperidin-4-yl}benzamide] | 71.7
N#Cc1ccc(C(=O)N2CCC(c3ccc(C(=O)NCc4ccn5ccnc5c4)cc3)CC2)c(Cl)c1 [Example 934, 4-[1-(2-chloro-4-cyanobenzoyl)piperidin-4-yl]-N-(imidazo[1,2-a]pyridin-7-ylmethyl)benzamide] | 6.38
C/C=C(\C)C(=O)N1CCC(c2ccc(C(=O)NCc3ccn4ccnc4c3)cc2)CC1 [Example 935, N-(imidazo[1,2-a]pyridin-7-ylmethyl)-4-{1-[(2E)-2-methylbut-2-enoyl]piperidin-4-yl}benzamide] | 10.3
COc1ccc(C)cc1CC(=O)N1CCC(c2ccc(C(=O)NCc3ccn4ccnc4c3)cc2)CC1 [Example 936, N-(imidazo[1,2-a]pyridin-7-ylmethyl)-4-{1-[(2-methoxy-5-methylphenyl)acetyl]piperidin-4-yl}benzamide] | 32.5
Cc1cccc(C(=O)N2CCC(c3ccc(C(=O)NCc4ccn5ccnc5c4)cc3)CC2)c1O [Example 937, 4-[1-(2-hydroxy-3-methylbenzoyl)piperidin-4-yl]-N-(imidazo[1,2-a]pyridin-7-ylmethyl)benzamide] | 80.9
O=C(NCc1ccn2ccnc2c1)Nc1ccc(C2CCN(C(=O)c3cccnc3Cl)CC2)cc1 [Example 938, 1-(4-{1-[(2-chloropyridin-3-yl)carbonyl]piperidin-4-yl}phenyl)-3-(imidazo[1,2-a]pyridin-7-ylmethyl)urea] | 6.27
CC(C)=CC(=O)N1CCC(c2ccc(NC(=O)NCc3ccn4ccnc4c3)cc2)CC1 [Example 939, 1-(imidazo[1,2-a]pyridin-7-ylmethyl)-3-{4-[1-(3-methylbut-2-enoyl)piperidin-4-yl]phenyl}urea] | > 10000
CC(C)(C)CC(=O)N1CCC(c2ccc(NC(=O)NCc3ccn4ccnc4c3)cc2)CC1 [Example 940, 1-{4-[1-(3,3-dimethylbutanoyl)piperidin-4-yl]phenyl}-3-(imidazo[1,2-a]pyridin-7-ylmethyl)urea] | 0.691
CC1=C(C(=O)N2CCC(c3ccc(NC(=O)NCc4ccn5ccnc5c4)cc3)CC2)CCC1 [Example 941, 1-(imidazo[1,2-a]pyridin-7-ylmethyl)-3-(4-{1-[(2-methylcyclopent-1-en-1-yl)carbonyl]piperidin-4-yl}phenyl)urea] | 0.519
